Assay in all cases: NCI anticancer screen, dose series, 48 h
Assay [1] concerns CCRF-CEM leukemia.
In assay [2] the test system is COLO 205 colon.
Assay [3] has as its system HOP-62 NSCLC.
Assay [4] deals with HOP-92 NSCLC.
The subject of assay [5] is KM12 colon.
The test system of assay [6] is MDA-MB-231 breast.
The test system of assay [7] is NCI-H522 lung.
In assay [8] the test system is SF-268 CNS.
Assay [9] relates to SF-295 CNS.
For assay [10], the system named is SNB-75 CNS.

Structures are written as SMILES. “And” between values parts separate entries of the source, which are not always exact repeats. Identical values can stand only once.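 Each compound was tested at five concentrations against cells in 96-well plates for 48 hours. Here, GI50 denotes the concentration required for 50% inhibition of growth. TGI marks complete inhibition of growth.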 Some results are limits rather than exact numbers.

For the molecule `CN(/N=C/c1cccc2cccnc12)c1ccc([N+](=O)[O-])cc1[N+](=O)[O-]`, the TGI in [1] is greater than 100 µM; in assay [2], greater than 100 µM; in assay [3] it was 22.9 µM; in [4], 42.7 µM; in assay [5], greater than 100 µM; in assay [6] it was 56.8 µM. Moreover, the TGI in [7] is 57.2 µM; in assay [8], 58.6 µM; in assay [9], 33 µM; in assay [10], 25.8 µM.
For the molecule `CC(=O)NC1C(OC[C@@H](CC(=O)N[C@@H](CC(=O)O)CC(=O)N[C@H](CC(=O)N[C@@H](CCCN)CC(=O)N[C@@H](CCCN)CC(=O)N[C@H](CC(N)=O)C(C)C)C(C)C)NC(=O)C[C@@H](N)C(C)C)OC(CO)C(O)C1O` (some centres not stated), the GI50 in [1], in assay [2], in assay [3], in assay [4], in [5] and in assay [6] was greater than 100 µM each time. Further, the GI50 in assay [7], in assay [8], in [9] and in [10] was greater than 100 µM in each case. For the same molecule, the TGI in assay [1], in assay [2], in [3], in [4], in assay [5] and in [6] was greater than 100 µM in each case. Besides, the TGI in [7], in assay [8], in assay [9] and in assay [10] was greater than 100 µM throughout.
For the molecule `C=C(C)C(O)CCC1(C)C=Cc2c(c(C)cc3c2[nH]c2ccccc23)O1` (configuration not stated), the GI50 in assay [1] was 4.2 µM; in [2], 2.43 µM; in [3], 2.47 µM; in assay [4], 10.3 µM; in [5] it was 2 µM; in [7] it was 3.29 µM. In assay [8], the GI50 was 5.6 µM. For the same molecule, the TGI was 25 µM and 16.7 µM in [1]; 9.81 µM and 6.13 µM in [2]; 9.46 µM and 6.11 µM in assay [3]; 25 µM and 22.8 µM in assay [4]; 12.5 µM and 4.32 µM in [5]; 11.4 µM in assay [6]. Also, the TGI was 11.3 µM and 9.34 µM in assay [7]; 25 µM and 19.3 µM in assay [8]; 14.8 µM in assay [9]; 9.8 µM in assay [10].
In the case of `ClCc1cccc2c(CCl)cccc12`, the GI50 in [1] was 2.31 µM; in assay [2], 2.4 µM; in [3], 3.24 µM; in [4], 2.83 µM; in assay [5] it was 1.55 µM; in [6] it was 13 µM. For the same molecule, the GI50 was 2.83 µM in [7], 2.95 µM in [8], 5.59 µM in assay [9] and 2.1 µM in [10]. Moreover, the TGI in assay [1] is greater than 100 µM; in [2] it was 7.14 µM; in assay [3], 10.2 µM; in [4], 18.7 µM; in assay [5], 3.48 µM; in assay [6], 39 µM. Also, the TGI in [7] turned out to be 16.3 µM; in assay [8] it was 15 µM; in assay [9], 19.5 µM; in [10], 14.6 µM.
In the case of `O=C(O)CN(CC(=O)O)Cc1cc(C#Cc2ccc(C#Cc3ccccc3)cc2)cc(CN(CC(=O)O)CC(=O)O)n1`, the TGI in [1] is greater than 64.9 µM; in assay [2], 36.2 µM; in assay [3], 71 µM; in assay [4], 99.6 µM; in assay [5], greater than 92 µM; in [6], 43 µM. For the same molecule, the TGI is 52 µM in [7], greater than 85.4 µM in [8], greater than 88.9 µM in assay [9] and greater than 100 µM in [10].
Take `CCOC(=O)Nc1ccc2c(c1)/C(=N\NC(N)=S)c1ccccc1-2`: the GI50 was 3.49 µM in assay [1]; 3.74 µM in [2]; 4.9 µM in [3]; 8.49 µM in [4]; 3.29 µM in [5]; 3.48 µM in assay [6]. Besides, the GI50 is 3.84 µM in assay [7], 6.14 µM in assay [8], 2.37 µM in assay [9] and 4.19 µM in assay [10]. Besides, the TGI in assay [1] was 31.5 µM; in assay [2], 15 µM; in assay [3] it was 22.6 µM; in [4] it was 62.5 µM; in [5], 13.6 µM; in assay [6] it was greater than 54.6 µM. Moreover, the TGI in [7] amounted to 12.7 µM; in [8], 39.9 µM; in [9] it was 7.59 µM; in assay [10], 18.2 µM.

For the origin of these results see PubChem BioAssay (NCI).
